Where two headings read alike, the source gives them in different places.
Columns and labels:
[1] = 1 µM concentration; cited from earlier work
From the text: A full comparison of EC50 values is difficult since ...

[2] = tested on: dystrophin pre-mRNA exon 23 in primary mdx cardiomyocytes; experiment: Exon 23 skipping by nested RT-PCR in primary mdx cardiomyocytes; assay type: cell-based, mouse
[3] = tested on: dystrophin pre-mRNA exon 23 in H2k mdx myotubes; experiment: Exon 23 skipping by nested RT-PCR in differentiated H2k mdx myotubes; assay type: cell-based, mouse
[4] = tested on: dystrophin pre-mRNA exon 23 in H2k mdx myoblasts; experiment: Exon 23 skipping by nested RT-PCR in undifferentiated H2k mdx myoblasts; assay type: cell-based, mouse
[5] = tested on: dystrophin pre-mRNA exon 23 in primary wild-type cardiomyocytes; experiment: Exon 23 skipping by nested RT-PCR in primary wild-type cardiomyocytes; assay type: cell-based, mouse; conditions: for %ES (percentage of exon skipping): 1000 nM, WT (healthy) cardiomyocytes, serum-containing medium, 24 h post-treatment, n ≥ 4
H2k mdx myotubes = experiment: Cellular uptake by fluorescence spectroscopy in H2k mdx myotubes
Experimental: After incubation with 3′-fluorescein labelled Pip6a-PMO or 3′-fluorescein-labelled PMO, cells were washed twice with PBS and lysed with 300 µl GLB buffer (Promega). In all, 100 µl of the lysate were transferred into black non-binding 96-well plates (Greiner) and fluorescence was measured on a Tecan plate reader (Ex 485 nm/Em 520 nm). Protein concentration was measured by a BCA kit (Pierce) on a Tecan plate reader (Abs 560 nm).

[6] = tested on: dystrophin pre-mRNA exon 23 in C2C12 myotubes; experiment: Exon 23 skipping by nested RT-PCR in differentiated C2C12 myotubes; assay type: cell-based, mouse; conditions: serum-containing transfection media, 24 h post-treatment
Experimental: Figure S3. Exon skipping efficiency of Pip6a-PMO in C2C12 skeletal muscle cells. C2C12 cells were differentiated for 6 days and thereafter incubated with Pip6a-PMO under serum condition (+S). Transfections were carried out for 4 h under serum conditions and cells were incubated further with serum-containing medium for 20 h. Exon skipping efficiency was evaluated on pre-mRNA levels by nested RT-PCR. Products were separated by gel electrophoresis and exon skipping values were derived from densitometric analysis. (Percentage of exon skipping (%ES) calculated as described in Figure S1 with n≥4).

Question: For “(RXRRBR)2 [B-PMO, PMO covalently linked to the (RXRRBR)2 B-peptide, previously described PPMO]”, which reported exon-skipping level [1] is on record?
Answer: ~45%

Question: What does the source list for “Ac-RXRRBRRXRYQFLIRXRBRXRB-OH [Pip6a-PMO, Pip6a peptide conjugated by amide linkage to the 5′-amino linker of the PMO; carries 3′-fluorescein label unless mentioned as unlabelled]”?
Answer: EC50 ([2]; primary cardiomyocytes from neonatal mdx and wild-type mice, not distinguished, approximate): ~1000 nM; exon skipping ([3]; 1 µM, statement of the discussion): complete exon skipping; EC50 ([3]; 48 h post-treatment (4 h transfection, then 44 h serum-containing medium), serum condition (+S), read-out: EC50 at 48 h (exon 23 skipping)): 20 nM; EC50 ([3]; serum-free medium (-S), 24 h post-treatment, Prism 5.0 after normalization of the Δ23 skipping, read-out: EC50 (concentration required to achieve 50% exon 23 skipping)): 41 nM; EC50 ([3]; serum-supplemented transfection medium (+S), 24 h post-treatment, Prism 5.0 after normalization, read-out: EC50 (exon 23 skipping)): 30 nM; EC50 in H2k mdx myoblasts relative to H2k mdx myotubes ([4]; 183 nM in myoblasts compared with myotubes): ~6 times; EC50 ([4]; undifferentiated H2k mdx myoblasts, data not shown): 183 nM; %ES (percentage of exon skipping) [5]: 44%; change of exon skipping with 48 h incubation ([5]; 48 h post-treatment compared with 24 h, primary wild type cardiomyocytes, Supplementary Figure S7): did not increase significantly; effect of EIPA on cellular delivery and exon-skipping activity (H2k mdx myotubes; 250 nM, 4 h, EIPA 10 µM, 30 min pre-treatment, n ≥ 4): only negligible effects; effect of CPZ on cellular delivery and exon-skipping activity (H2k mdx myotubes; 250 nM, 4 h, chlorpromazine 30 µM, 30 min pre-treatment, n ≥ 4): only negligible effects; effect of nystatin on uptake and exon 23-skipping efficiency (H2k mdx myotubes; 250 nM, 4 h, nystatin 50 µM, 30 min pre-treatment, n ≥ 4): pronounced effect; increase of uptake in myotubes versus myoblasts (H2k mdx myotubes; H2k mdx cells, 4 h incubation, fluorescence spectroscopy): 2 fold; EC50 [6]: 107 nM

Question: What does the source list for “PMO: phosphorodiamidate morpholino oligomer 5′-GGCCAAACCTCGGCTTACCTGAAAT-3′ with 5′-amino linker and 3′-fluorescein label, Gene Tools (morpholino, 5'-amino linker, 3'-fluorescein, chemistry not fully specified) [reference compound]”?
Answer: %ES (percentage of exon skipping) ([2]; 1000 nM, mdx cardiomyocytes, serum-containing medium, 24 h post-treatment, n ≥ 4, listed as naked PMO): failed to induce any exon skipping; %ES (percentage of exon skipping) ([5]; listed as naked PMO): failed to induce any exon skipping; cellular uptake (fluorescence) (H2k mdx myotubes; 1000 nM, 4 h incubation, cell lysate fluorescence Ex 485 nm/Em 520 nm): no uptake
